{"source": "patent US9920010B2", "about": "“CXCR7 receptor modulators” (IDORSIA PHARMACEUTICALS LTD, priority 2013, dated 2018)"}
{"molecular_target": "T1, CXCR7 (Homo sapiens, UniProt P25106)", "T1 construct": "host or cells: CHO-K1 (PathHunter CHO-K1 CXCR7 b-arrestin cell line, stably transfected)", "T1 sequence (P25106 whole entry, the tested form may be a part)": "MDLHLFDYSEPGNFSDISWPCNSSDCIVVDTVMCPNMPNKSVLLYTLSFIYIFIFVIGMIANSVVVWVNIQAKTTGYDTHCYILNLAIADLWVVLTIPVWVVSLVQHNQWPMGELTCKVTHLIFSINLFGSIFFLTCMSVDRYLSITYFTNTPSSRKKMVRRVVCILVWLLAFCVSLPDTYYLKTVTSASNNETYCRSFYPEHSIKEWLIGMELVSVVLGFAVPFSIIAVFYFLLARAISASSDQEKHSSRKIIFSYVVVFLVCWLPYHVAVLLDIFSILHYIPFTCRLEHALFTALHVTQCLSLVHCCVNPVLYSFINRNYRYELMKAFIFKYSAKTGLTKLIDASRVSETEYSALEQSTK", "T1 sequence (P32121 whole entry partner, the tested form may be a part)": "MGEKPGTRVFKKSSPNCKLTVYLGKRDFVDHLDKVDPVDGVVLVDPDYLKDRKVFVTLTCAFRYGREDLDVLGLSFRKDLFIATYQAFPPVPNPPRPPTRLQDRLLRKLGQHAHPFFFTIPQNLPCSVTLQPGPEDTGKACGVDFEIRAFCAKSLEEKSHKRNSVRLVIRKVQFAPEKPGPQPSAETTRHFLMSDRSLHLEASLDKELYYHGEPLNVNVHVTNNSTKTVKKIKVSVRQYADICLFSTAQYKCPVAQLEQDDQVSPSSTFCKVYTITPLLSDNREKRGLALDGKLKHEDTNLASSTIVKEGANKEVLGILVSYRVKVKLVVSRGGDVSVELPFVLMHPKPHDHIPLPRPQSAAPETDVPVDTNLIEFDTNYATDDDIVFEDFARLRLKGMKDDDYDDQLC", "assay": "PathHunter CHO-K1 CXCR7 b-arrestin recruitment assay (CXCR7 agonistic activity)", "type": "cell-based", "details": "PathHunter CHO-K1 CXCR7 b-arrestin cell line", "in_short": "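Stable CHO-K1 line with C-terminally ProLink-tagged CXCR7 and β-arrestin 2–EA fusion; β-arrestin recruitment restores β-gal activity, read by chemiluminescence after 1 h RT detection. Cells seeded 24 h, starved in OPTIMEM 3–4 h, exposed to compounds 90 min at 37 °C in HBSS/HEPES/BSA. Geometric-mean EC50 from repeated measurements.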", "units": {"EC50": "nM"}}
{"smiles": "O=C(CNc1cccc2c1CCN(CC1CC1)C2)N(CCN1CCC(F)(F)CC1)Cc1ncccc1Cl", "note": "[Example 249, N-(3-Chloro-pyridin-2-ylmethyl)-2-(2-cyclopropylmethyl-1,2,3,4-tetrahydro-isoquinolin-5-ylamino)-N-[2-(4,4-difluoro-piperidin-1-yl)-ethyl]-acetamide]", "EC50": 12}
{"smiles": "CC(C)(O)CN(Cc1ncccc1Cl)C(=O)CNc1cccc2c1CCN(CC1CC1)C2", "note": "[Example 251, N-(3-Chloro-pyridin-2-ylmethyl)-2-(2-cyclopropylmethyl-1,2,3,4-tetrahydro-isoquinolin-5-ylamino)-N-(2-hydroxy-2-methyl-propyl)-acetamide]", "EC50": 24}
{"smiles": "CC(C)(C)OC(=O)N1CCC(N(Cc2ccccc2C(F)(F)F)C(=O)CNc2cccc3c2CCN(CC2CC2)C3)CC1", "note": "[Example 252, 4-[[2-(2-Cyclopropylmethyl-1,2,3,4-tetrahydro-isoquinolin-5-ylamino)-acetyl]-(2-trifluoromethyl-benzyl)-amino]-piperidine-1-carboxylic acid tert-butyl ester]", "EC50": 426}
{"smiles": "CC(C)(C)OC(=O)N1CCC(CN(Cc2ccccc2C(F)(F)F)C(=O)CNc2cccc3c2CCN(CC2CC2)C3)C1", "note": "(centres unmarked) [Example 253, 3-{[[2-(2-Cyclopropylmethyl-1,2,3,4-tetrahydro-isoquinolin-5-ylamino)-acetyl]-(2-trifluoromethyl-benzyl)-amino]-methyl}-pyrrolidine-1-carboxylic acid tert-butyl ester]", "EC50": 42}
{"smiles": "CC(C)(C)OC(=O)N1CCC(N(Cc2ccccc2C(F)(F)F)C(=O)CNc2cccc3c2CCN(CC2CC2)C3)C1", "note": "(centres unmarked) [Example 254, 3-[[2-(2-Cyclopropylmethyl-1,2,3,4-tetrahydro-isoquinolin-5-ylamino)-acetyl]-(2-trifluoromethyl-benzyl)-amino]-pyrrolidine-1-carboxylic acid tert-butyl ester]", "EC50": 161}
{"smiles": "CN(C)CCN(Cc1ccncn1)C(=O)CNc1cccc2c1CCN(CC1CC1)C2", "note": "[Example 255, 2-(2-Cyclopropylmethyl-1,2,3,4-tetrahydro-isoquinolin-5-ylamino)-N-(2-dimethylamino-ethyl)-N-pyrimidin-4-ylmethyl-acetamide]", "EC50": 390}
{"smiles": "Cc1cccnc1CN(CCN(C)C)C(=O)CNc1cccc2c1CCN(CC1CC1)C2", "note": "[Example 256, 2-(2-Cyclopropylmethyl-1,2,3,4-tetrahydro-isoquinolin-5-ylamino)-N-(2-dimethylamino-ethyl)-N-(3-methyl-pyridin-2-ylmethyl)-acetamide]", "EC50": 11}
{"smiles": "CN(C)CCN(Cc1ccccn1)C(=O)CNc1cccc2c1CCN(CC1CC1)C2", "note": "[Example 257, 2-(2-Cyclopropylmethyl-1,2,3,4-tetrahydro-isoquinolin-5-ylamino)-N-(2-dimethylamino-ethyl)-N-pyridin-2-ylmethyl-acetamide]", "EC50": 29}
{"smiles": "Cc1ccc(CN(CCN(C)C)C(=O)CNc2cccc3c2CCN(CC2CC2)C3)nc1", "note": "[Example 258, 2-(2-Cyclopropylmethyl-1,2,3,4-tetrahydro-isoquinolin-5-ylamino)-N-(2-dimethylamino-ethyl)-N-(5-methyl-pyridin-2-ylmethyl)-acetamide]", "EC50": 27}
{"smiles": "Cc1cccc(CN(CCN(C)C)C(=O)CNc2cccc3c2CCN(CC2CC2)C3)n1", "note": "[Example 259, 2-(2-Cyclopropylmethyl-1,2,3,4-tetrahydro-isoquinolin-5-ylamino)-N-(2-dimethylamino-ethyl)-N-(6-methyl-pyridin-2-ylmethyl)-acetamide]", "EC50": 5}
{"smiles": "CN(C)CCN(Cc1ncccn1)C(=O)CNc1cccc2c1CCN(CC1CC1)C2", "note": "[Example 260, 2-(2-Cyclopropylmethyl-1,2,3,4-tetrahydro-isoquinolin-5-ylamino)-N-(2-dimethylamino-ethyl)-N-pyrimidin-2-ylmethyl-acetamide]", "EC50": 125}
{"smiles": "CN(C)CCN(Cc1ccc(Cl)cn1)C(=O)CNc1cccc2c1CCN(CC1CC1)C2", "note": "[Example 261, N-(5-Chloro-pyridin-2-ylmethyl)-2-(2-cyclopropylmethyl-1,2,3,4-tetrahydro-isoquinolin-5-ylamino)-N-(2-dimethylamino-ethyl)-acetamide]", "EC50": 47}
{"smiles": "CN(C)CCN(Cc1cncc(Cl)c1)C(=O)CNc1cccc2c1CCN(CC1CC1)C2", "note": "[Example 262, N-(5-Chloro-pyridin-3-ylmethyl)-2-(2-cyclopropylmethyl-1,2,3,4-tetrahydro-isoquinolin-5-ylamino)-N-(2-dimethylamino-ethyl)-acetamide]", "EC50": 62}
{"smiles": "CN(C)CCN(Cc1ccnn1C)C(=O)CNc1cccc2c1CCN(CC1CC1)C2", "note": "[Example 264, 2-(2-Cyclopropylmethyl-1,2,3,4-tetrahydro-isoquinolin-5-ylamino)-N-(2-dimethylamino-ethyl)-N-(2-methyl-2H-pyrazol-3-ylmethyl)-acetamide]", "EC50": 374}
{"smiles": "CN(C)CCN(Cc1nccs1)C(=O)CNc1cccc2c1CCN(CC1CC1)C2", "note": "[Example 265, 2-(2-Cyclopropylmethyl-1,2,3,4-tetrahydro-isoquinolin-5-ylamino)-N-(2-dimethylamino-ethyl)-N-thiazol-2-ylmethyl-acetamide]", "EC50": 48}
{"smiles": "Cc1csc(CN(CCN(C)C)C(=O)CNc2cccc3c2CCN(CC2CC2)C3)n1", "note": "[Example 266, 2-(2-Cyclopropylmethyl-1,2,3,4-tetrahydro-isoquinolin-5-ylamino)-N-(2-dimethylamino-ethyl)-N-(4-methyl-thiazol-2-ylmethyl)-acetamide]", "EC50": 16}
{"smiles": "CN(C)CCN(Cc1ccc(F)cn1)C(=O)CNc1cccc2c1CCN(CC1CC1)C2", "note": "[Example 267, 2-(2-Cyclopropylmethyl-1,2,3,4-tetrahydro-isoquinolin-5-ylamino)-N-(2-dimethylamino-ethyl)-N-(5-fluoro-pyridin-2-ylmethyl)-acetamide]", "EC50": 33}
{"smiles": "CN(C)CCN(Cc1ccncc1)C(=O)CNc1cccc2c1CCN(CC1CC1)C2", "note": "[Example 268, 2-(2-Cyclopropylmethyl-1,2,3,4-tetrahydro-isoquinolin-5-ylamino)-N-(2-dimethylamino-ethyl)-N-pyridin-4-ylmethyl-acetamide]", "EC50": 350}
{"smiles": "Cc1cc(CN(CCN(C)C)C(=O)CNc2cccc3c2CCN(CC2CC2)C3)no1", "note": "[Example 269, 2-(2-Cyclopropylmethyl-1,2,3,4-tetrahydro-isoquinolin-5-ylamino)-N-(2-dimethylamino-ethyl)-N-(5-methyl-isoxazol-3-ylmethyl)-acetamide]", "EC50": 54}
{"smiles": "CN(C)CCN(Cc1c(F)cccc1F)C(=O)CNc1cccc2c1CCN(CC1CC1)C2", "note": "[Example 270, 2-(2-Cyclopropylmethyl-1,2,3,4-tetrahydro-isoquinolin-5-ylamino)-N-(2,6-difluoro-benzyl)-N-(2-dimethylamino-ethyl)-acetamide]", "EC50": 7}
{"smiles": "CN(C)CCN(Cc1ncccc1F)C(=O)CNc1cccc2c1CCN(CC1CC1)C2", "note": "[Example 271, 2-(2-Cyclopropylmethyl-1,2,3,4-tetrahydro-isoquinolin-5-ylamino)-N-(2-dimethylamino-ethyl)-N-(3-fluoro-pyridin-2-ylmethyl)-acetamide]", "EC50": 10}
{"smiles": "CN(C)CCN(Cc1cnc(N(C)C)nc1)C(=O)CNc1cccc2c1CCN(CC1CC1)C2", "note": "[Example 272, 2-(2-Cyclopropylmethyl-1,2,3,4-tetrahydro-isoquinolin-5-ylamino)-N-(2-dimethylamino-ethyl)-N-(2-dimethylamino-pyrimidin-5-ylmethyl)-acetamide]", "EC50": 230}
{"smiles": "CC(C)(C)OC(=O)NCCN(Cc1ccccc1C(F)(F)F)C(=O)CNc1cccc2c1CCN(CC1CC1)C2", "note": "[Example 273, {2-[[2-(2-Cyclopropylmethyl-1,2,3,4-tetrahydro-isoquinolin-5-ylamino)-acetyl]-(2-trifluoromethyl-benzyl)-amino]-ethyl}-carbamic acid tert-butyl ester]", "EC50": 144}
{"smiles": "CC(C)(C)CCN(Cc1ccccc1C(F)(F)F)C(=O)CNc1cccc2c1CCN(CC1CC1)C2", "note": "[Example 274, 2-(2-Cyclopropylmethyl-1,2,3,4-tetrahydro-isoquinolin-5-ylamino)-N-(3,3-dimethyl-butyl)-N-(2-trifluoromethyl-benzyl)-acetamide]", "EC50": 179}
{"smiles": "CC(C)(C)CCN(Cc1ncccc1C(F)(F)F)C(=O)CNc1cccc2c1CCN(CC1CC1)C2", "note": "[Example 275, 2-(2-Cyclopropylmethyl-1,2,3,4-tetrahydro-isoquinolin-5-ylamino)-N-(3,3-dimethyl-butyl)-N-(3-trifluoromethyl-pyridin-2-ylmethyl)-acetamide]", "EC50": 43}
{"smiles": "Cc1cccnc1CN(CCC(C)(C)C)C(=O)CNc1cccc2c1CCN(CC1CC1)C2", "note": "[Example 276, 2-(2-Cyclopropylmethyl-1,2,3,4-tetrahydro-isoquinolin-5-ylamino)-N-(3,3-dimethyl-butyl)-N-(3-methyl-pyridin-2-ylmethyl)-acetamide]", "EC50": 17}
{"smiles": "O=C(CNc1cccc2c1CCN(CC1CC1)C2)N(CCN1CCC(F)(F)CC1)Cc1ccccc1C(F)(F)F", "note": "[Example 277, 2-(2-Cyclopropylmethyl-1,2,3,4-tetrahydro-isoquinolin-5-ylamino)-N-[2-(4,4-difluoro-piperidin-1-yl)-ethyl]-N-(2-trifluoromethyl-benzyl)-acetamide]", "EC50": 28}
{"smiles": "CN(CCN(Cc1ccccc1C(F)(F)F)C(=O)CNc1cccc2c1CCN(CC1CC1)C2)CC(F)(F)F", "note": "[Example 278, 2-(2-Cyclopropylmethyl-1,2,3,4-tetrahydro-isoquinolin-5-ylamino)-N-{2-[methyl-(2,2,2-trifluoro-ethyl)-amino]-ethyl}-N-(2-trifluoromethyl-benzyl)-acetamide]", "EC50": 79}
{"smiles": "O=C(CNc1cccc2c1CCN(CC1CC1)C2)N(CCN1CCC(F)(F)CC1)Cc1ncccc1C(F)(F)F", "note": "[Example 279, 2-(2-Cyclopropylmethyl-1,2,3,4-tetrahydro-isoquinolin-5-ylamino)-N-[2-(4,4-difluoro-piperidin-1-yl)-ethyl]-N-(3-trifluoromethyl-pyridin-2-ylmethyl)-acetamide]", "EC50": 8}
